The values that follow come from patent publication US20080188449A1, “Treatment of Conditions Caused By Calcium Abnormalities” (priority 2004, published 2008).

For series [1], the target named is T1, polycystin-2 (Mus musculus, UniProt O35245).
T1 construct: murine cell lines were derived from knockout and transgenic mice as previously reported; endogenous in cells; host or cells: Murine kidney proximal tubule epithelial cells, Pkd1-/- (MN24)
T1 sequence (O35245 1-966): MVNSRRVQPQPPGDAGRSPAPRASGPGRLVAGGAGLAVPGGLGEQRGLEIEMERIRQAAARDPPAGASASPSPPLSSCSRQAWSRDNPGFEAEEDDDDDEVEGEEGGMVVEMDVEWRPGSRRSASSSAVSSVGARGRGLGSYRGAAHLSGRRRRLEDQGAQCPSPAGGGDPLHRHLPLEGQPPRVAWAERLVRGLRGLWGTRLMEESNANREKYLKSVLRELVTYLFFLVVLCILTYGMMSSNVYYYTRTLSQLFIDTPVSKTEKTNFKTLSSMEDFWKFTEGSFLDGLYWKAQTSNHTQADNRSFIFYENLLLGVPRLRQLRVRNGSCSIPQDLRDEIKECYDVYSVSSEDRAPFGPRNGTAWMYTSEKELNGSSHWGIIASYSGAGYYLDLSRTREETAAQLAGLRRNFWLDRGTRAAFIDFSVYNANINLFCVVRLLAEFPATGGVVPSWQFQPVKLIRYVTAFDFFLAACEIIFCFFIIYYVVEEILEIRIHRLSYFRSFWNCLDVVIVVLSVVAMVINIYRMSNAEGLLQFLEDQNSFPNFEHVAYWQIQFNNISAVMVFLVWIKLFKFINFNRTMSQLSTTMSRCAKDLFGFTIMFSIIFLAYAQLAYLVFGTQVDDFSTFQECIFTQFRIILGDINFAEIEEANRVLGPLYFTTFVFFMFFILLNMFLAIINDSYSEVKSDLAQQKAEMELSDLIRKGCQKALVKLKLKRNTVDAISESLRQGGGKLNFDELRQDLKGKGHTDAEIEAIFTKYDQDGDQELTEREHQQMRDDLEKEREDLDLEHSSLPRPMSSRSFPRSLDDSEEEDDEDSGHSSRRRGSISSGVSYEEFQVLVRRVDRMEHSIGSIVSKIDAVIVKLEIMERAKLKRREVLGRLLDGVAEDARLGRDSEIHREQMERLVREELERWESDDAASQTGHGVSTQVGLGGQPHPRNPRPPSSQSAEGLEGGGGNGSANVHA
The series is described as follows: Fluo-4 calcium imaging in murine kidney epithelial cells. The following applies: 100 nM perfused, Pkd1^−/− cells. It is filed as cell-based. From the text: (§1) Murine kidney epithelial cell lines with differing polycystin-1 or polycystin-2 expression were used to establish a cellular based mechanism for polycystin-2 mediated calcium release in response to triptolide. Because the biochemical purification analysis identified polycystin-2 as a putative triptolide binding protein, Applicants assessed whether the calcium release was dependent upon expression of polycystin-1. Epithelial cells derived from the proximal nephric tubules of Pkd1^−/− mice were first examined to determine if calcium release was observed when 100 nM of triptolide was perfused through the imaging chamber. […] To strengthen the evidence that polycystin-2 was necessary for calcium release elicited by triptolide addition, it was reconstituted by stable expression of Pkd2 into the background of Pkd2^−/− cells, which were assessed for sensitivity to triptolide.
(§2) Cells were plated on coverslips and loaded with Fluo-4 (Molecular Probes) diluted in DMSO/pluronic for 30 minutes prior to imaging. Cells were perfused with a calcium imaging buffer (HEPES, NaCl, KCl, MgSO4 and CaCl2)±100 nM triptolide. All cell traces are indicative of individual cellular fluorescence and calcium release. Data is presented as change of fluorescence over baseline control (no triptolide addition).

Series [2] relates to polycystin-2. Described as above. Type of series: cell-based.
Description: as §1, §2

In series [3] the test system is Pkd1^−/− murine model of polycystic kidney disease. The experiment in a line: Pkd1^−/− murine model of polycystic kidney disease, treatment during gestation. It is filed as in vivo, mice. As to the method:
Following successful Pkd1^+/−/Pkd1^+/− matings, 0.07 mg/kg/day of triptolide or DMSO control was injected i.p. into pregnant mice until they gave birth. All pups were assessed for viability, length, developmental staging, and wet kidney weight. A total of 59 pups from DMSO treated females and 100 pups from triptolide treated females were examined for multiple parameters, such as genotypic distribution, developmental stage at time of birth, and average kidney weights (Table 1). […] Approximately 20% of all Pkd1^−/− mice were born alive from each treatment group. However, severe edematous abnormalities were obvious upon necropsy.
As per approved IACUC animal protocol, Pkd1^+/−/Pkd1^+/− mice were mated and pregnant mice were divided into control (DMSO) or experimental (triptolide) groups. A total volume of 100 μl of PBS with no more than 5% DMSO or DMSO/0.07 mg/kg/day triptolide was injected i.p. with a 28 G ½ insulin syringe. Mice were weighed and injected starting at E10.5 until birth. All pups were examined for length and developmental staging such as whisker formation. Kidneys were harvested, weighed, and fixed in 4% paraformaldehyde before histological preparation.
Kidneys were prepared by sagittal cross-sectioning and hematoxylin and eosin staining. All kidneys were photographed under the same magnification (4×) and cystic burden was computed using Image J analysis software (NIH). The area of cysts within the total area of the kidney (pixels) was calculated as a final percentage of cystic burden in the kidney. Immunohistochemical analysis of active caspase-3 was completed as per manufacturer's protocol.

The mark [4] stands for this setting: 0.07 mg/kg/day i.p. to pregnant mice, E10.5 until birth.

Turning to `CC(C)[C@]12O[C@H]1[C@@H]1O[C@]13[C@]1(O[C@H]1C[C@H]1C4=C(CC[C@@]13C)C(=O)OC4)[C@@H]2O` [triptolide, Triptolide], the calcium release result at polycystin-2 [1] is given as “clear rise in intracellular calcium levels”; in the series on polycystin-2 [2] (100 nM perfused, Pkd2^−/− cells), “no calcium release was detected”; in the series on polycystin-2 [2] (100 nM, Pkd2 re-expressed in Pkd2^−/− cells), “restored calcium release”. The “Alive Pkd1^−/− (birth) (number)” value in series [3] (setting [4]) stood at 4. Besides, the “Alive Pkd1^−/− (birth) (percent)” value is listed as “Approximately 20%” in series [3] (setting [4]) and 22% in series [3] (0.07 mg/kg/day i.p. to pregnant mice, E10.5 until birth, listed as Triptolide). In series [3] (Pkd1^−/− kidneys), the “diameter of cyst lumens on average” value was “smaller”. The “active caspase-3 immunoreactivity in kidney sections” value in series [3] (Pkd1^−/− kidneys, IHC) is “did not show any significant activation of the caspase pathway”. Also, the kidney morphology entry in series [3] (mouse, in vivo) is “normal morphology”.
